Experimental data taken from publication PMC12670160, “A drug-repurposing screen of FDA- and EMA-approved drugs identifies two NF-κB inhibitors active against eumycetoma” (Journal of Antimicrobial Chemotherapy, 2025).
In brackets after ≈: the same amount, converted by molar mass. Where two headings read alike, the source gives them in different places.

Columns and labels:
[1] = tested on: M. mycetomatis strain mm55; test: IC50 and MIC determination, CellTiter-Glo, strain mm55; assay type: cell-based, Madurella mycetomatis; details: for IC50: concentration inhibiting 50% of fungal hyphae growth; for MIC: concentration with complete growth inhibition
M. mycetomatis strain P1 = test: IC50 and MIC determination, CellTiter-Glo, strain P1; assay type: cell-based, Madurella mycetomatis
M. mycetomatis strain I1 = test: IC50 and MIC determination, CellTiter-Glo, strain I1; assay type: cell-based, Madurella mycetomatis
[2] = tested on: healthy uninfected G. mellonella larvae; details: for Toxicity in G. mellonella larvae at concentrations as low as 0.5 µM: tested at 20, 10, 5, 1 and 0.5 µM
Procedure: (§1) For in vivo experiments, sixth-week instar G. mellonella larvae were purchased from Blue-Lagoon, Maassluis, The Netherlands. The larvae were raised and kept in the dark at room temperature. Larvae without any discoloration and weighing around 500 mg were selected for experiments.
To determine the toxicity, 15 healthy uninfected larvae were injected with 20 µL of 20 µM compound as previously described.[16] […] As a control, a separate group of larvae were injected with 20 µL of PBS. Larvae were housed in Petri dishes with Whatman paper at 37°C in the dark. Survival was monitored for 10 days.

M. mycetomatis [3] = test: In vitro susceptibility, averages over M. mycetomatis isolates (average metabolic activity at 2 µM, mean MIC); assay type: cell-based, Madurella mycetomatis; details: 2 µM; 4 days at 37°C; CellTiter-Glo; average of 3 isolates; 20% or below = inhibition
M. mycetomatis [4] = test: as above; assay type: cell-based; details: Madurella mycetomatis, 96 h, 4 days at 37°C, CellTiter-Glo, average of 3 isolates, 20% or below = inhibition
Procedure: M. mycetomatis isolate MM55 was used to screen the Oncode library. This strain was kindly provided by Prof. […] The three M. mycetomatis isolates were identified by ITS sequencing and maintained at −80°C at Erasmus MC. Prior to in vitro screening, isolates were cultured on Sabouraud agar plates (BD, Erembodegem, Belgium) at 37°C.
The Oncode Drug Repurposing library was based on the drug repurposing library from the Drug Repurposing Hub of the Broad Institute and recreated by the Oncode institute.[13] […] Each well of the 384-well plates contained 0.6 µL of a 200 µM stock concentration of compound, resulting in a final concentration of 2 µM when the fungus was added. […] Furthermore, this concentration could also be reached in the G. mellonella larvae.[8],[11] The prepared 384-well plates were transferred on dry ice to the Erasmus MC and stored at −80°C until they were screened.
Each plate also contained a growth control (60 µL of M. mycetomatis hyphal suspension, plus 0.6 µL of DMSO) and a negative control (60 µL of culture medium, plus 0.6 µL of DMSO). Plates were then incubated for 4 days at 37°C, after which 30 µL of CellTiter-Glo 3D Cell Viability reagent was added to every well.[19] After 25 min of incubation at room temperature, the luminescence was measured with a CytoFluor Series 4000 luminometer (PerSeptive Biosystems, Framingham, MA, USA). To determine the metabolic activity, the following formula was used:
Percentagemetabolicactivity=(Absorbancetestluminensence−AbsorbanceNCluminensence/AbsorbanceGCluminensence−AbsorbanceNCluminensence)×100
where, GC is growth control and NC is negative control. The luminescence measured for the GC is considered as 100% metabolic activity. The luminescence for the NC is considered as 0% metabolic activity.

M. mycetomatis [5] = tested on: M. mycetomatis; set-up: method as in PMID 35398930, PMID 15793113, PMID 36005544, PMID 34181477, PMID 22964246; details: against M. mycetomatis; cited from earlier work
[6] = tested on: M. mycetomatis-infected G. mellonella larvae; details: cited from earlier work
[7] = tested on: M. mycetomatis MM55-infected G. mellonella larvae; test: Therapeutic efficacy in M. mycetomatis-infected G. mellonella larvae (survival, log-rank); assay type: in vivo, Galleria mellonella
Procedure: as §1
The wet weight was determined and 10 mL of PBS per gram of mycelia was added. The suspension was then sonicated for 2 min to achieve a particle size of 10 µm. The fungal suspension (4 mg/40 µL) was injected into the last left pro-leg of a healthy G. mellonella larva with an insulin 29G U-100 needle to reach a final inoculum of 4 mg/larva. Larvae were placed in Petri dishes containing Whatman paper in a 37°C incubator.
A control group was also included in which M. mycetomatis-infected larvae were treated with PBS or with 1 mg/kg amphotericin B (Fungizone, Bristol Myers Squibb, Utrecht, The Netherlands). […] The treatment was repeated at 28 h post infection and 52 h post infection via different prolegs. The infection was monitored for 10 days.
To compare the survival rates between PBS treatment control and the different experimental groups a log-rank test was performed. All data were processed and performed in GraphPad Prism 10.

[8] = 20 µL of 20 µM injected, 10 day observation, toxic if more than 20% of larvae died
[9] = 20 µL of 10 µM at 4, 28 and 52 h post infection, 10 days

| Compound | IC50 [1] [µM] | MIC [1] [µM] | IC50 (M. mycetomatis strain P1; strain P1) [µM] | MIC (M. mycetomatis strain P1; strain P1) [µM] | IC50 (M. mycetomatis strain I1; strain I1) [µM] | MIC (M. mycetomatis strain I1; strain I1) [µM] | Average metabolic activity at 2 µM (%) (M. mycetomatis [3]) | activity at 2 µM (M. mycetomatis [4]) [%] | IC50 ([1]; Madurella mycetomatis) [µM] | MIC ([1]; Madurella mycetomatis) [µM] | IC50 (M. mycetomatis strain P1; Madurella mycetomatis, P1) [µM] | MIC (M. mycetomatis strain P1; Madurella mycetomatis, P1) [µM] | IC50 (M. mycetomatis strain I1; Madurella mycetomatis, I1) [µM] | MIC (M. mycetomatis strain I1; Madurella mycetomatis, I1) [µM] | Toxicity in G. mellonella larvae at 20 µM [2, 8] | Survival of M. mycetomatis-infected larvae versus PBS [7, 9] | further results |
| --- | --- | --- | --- | --- | --- | --- | --- | --- | --- | --- | --- | --- | --- | --- | --- | --- | --- |
| CC(=O)[O][Hg][c]1ccccc1 [Phenylmercuric acetate] | 1.12 | 2.00 | < 0.03 | 0.03 | 0.45 | 0.50 | 2.0 | – | – | – | – | – | – | – | – | – | Toxicity in G. mellonella larvae at concentrations as low as 0.5 µM ([2]; 10 day observation): toxic |
| C[C@@H](c1nc(-c2ccc(C#N)cc2)cs1)[C@](O)(Cn1cncn1)c1ccc(F)cc1F [Ravuconazole] | – | – | – | – | – | – | – | 1.3 | 0.17 | 0.25 (≈ 0.109 µg/mL) | < 0.03 | 0.06 (≈ 0.0262 µg/mL) | < 0.03 | 0.03 (≈ 0.0131 µg/mL) | – | – | MIC50 (M. mycetomatis [5]): 0.016 µg/mL (≈ 0.0366 µM); larval survival ([6]; only at concentrations higher than used in human patients): Prolonged survival |
| C[CH2][Hg][S]c1ccccc1C(=O)[O-].[Na+] [Thimerosal] | 0.08 | 0.25 | < 0.03 | 0.03 | 0.04 | 0.06 | 1.4 | – | – | – | – | – | – | – | toxicity was noted | No prolonged survival | log-rank P versus PBS treatment [7, 9]: 0.5242 |
| Clc1ccc(C(Cn2ccnc2)OCc2ccsc2Cl)c(Cl)c1 (stereo not shown) [Tioconazole] | – | – | – | – | – | – | – | 3.2 | 1.24 | 2 (≈ 0.775 µg/mL) | 0.39 | 0.5 (≈ 0.194 µg/mL) | 0.33 | 0.5 (≈ 0.194 µg/mL) | – | – | – |
| CC(C)(C)c1cc(C=C(C#N)C#N)cc(C(C)(C)C)c1O [Tyrphostin 9] | – | – | – | – | – | – | – | 1.5 | 1.36 | 2 (≈ 0.565 µg/mL) | 1.22 | 2 (≈ 0.565 µg/mL) | 0.78 | 1 (≈ 0.282 µg/mL) | toxicity was noted | Decreased survival | – |
| C[C@@H](c1ncncc1F)[C@](O)(Cn1cncn1)c1ccc(F)cc1F [Voriconazole] | – | – | – | – | – | – | – | 1.1 | 0.63 | 1 (≈ 0.349 µg/mL) | 0.33 | 0.5 (≈ 0.175 µg/mL) | 0.2 | 0.25 (≈ 0.0873 µg/mL) | – | – | MIC50 (M. mycetomatis [5]): 0.125 µg/mL (≈ 0.358 µM); larval survival ([6]; M. mycetomatis-infected G. mellonella larvae): No prolonged larval survival |
| C[C@@H]1[C@H](O)[C@@H](C)/C=C/C=C/C=C/C=C/C=C/C=C/C=C/[C@H](O[C@@H]2O[C@H](C)[C@@H](O)[C@H](N)[C@@H]2O)C[C@@H]2O[C@](O)(C[C@@H](O)C[C@@H](O)[C@H](O)CC[C@@H](O)C[C@@H](O)CC(=O)O[C@H]1C)C[C@H](O)[C@H]2C(=O)O [amphotericin B] | – | – | – | – | – | – | – | – | – | – | – | – | – | – | – | – | Survival of M. mycetomatis-infected larvae versus PBS ([7]; 1 mg/kg amphotericin B, infected treated control): prolonged the survival |
| OCCCNc1cc(-c2ccnc(Nc3cccc(Cl)c3)n2)ccn1 [cgp60474] | – | – | – | – | – | – | – | 7.4 | 1.55 | 2 (≈ 0.712 µg/mL) | 0.64 | 1 (≈ 0.356 µg/mL) | 0.81 | 1 (≈ 0.356 µg/mL) | – | – | Toxicity in G. mellonella larvae at 20 µM ([2]; in vivo): not toxic; Survival of M. mycetomatis-infected larvae versus PBS ([7]; 20 µL of 20 µM at 4, 28 and 52 h post infection, 10 days): No prolonged survival |
| C/C(=N\NC(=S)N1CCC1)c1ccccn1 [nsc319726] | – | – | – | – | – | – | – | 4.1 | 1.61 | 2 (≈ 0.469 µg/mL) | 0.74 | 2 (≈ 0.469 µg/mL) | 1.04 | 2 (≈ 0.469 µg/mL) | toxicity was noted | No prolonged survival | – |
| Bleomycin | 0.21 | 0.50 | < 0.03 | 0.03 | 0.2 | 0.25 | 1.6 | – | – | – | – | – | – | – | – | – | Toxicity in G. mellonella larvae at concentrations as low as 0.5 µM ([2]; 10 day observation): toxic |
